According to patent US12031087B2, “Oxygenated solvents for improved production of oil and gas” (Board of Regents, The University of Texas System, priority 2019, dated 2024):

Key:
[1] = Miscibility of 3p with crude oil; type: physicochemical; conditions: room temperature, 30-95 wt % 3p
Excerpt: 3-Pentanone properties. […] The density of 3p is 760 kg/m^3 at the experimental conditions in this research (347 K and atmospheric pressure).

[2] = IFT experiments by spinning drop tensiometer; type: physicochemical; conditions: 347 K
Protocol: IFT experiments. […] During the measurement, the denser phase was placed into a horizontal tube first, and then a droplet of the less dense phase was placed into the horizontal tube while the tube was rotating. The droplet was deformed owing to the rotation, which was visualized by using a high-power monochromatic light-emitting diode and stroboscope. The shape of a droplet spinning in the capillary tube was recorded by a high-resolution camera.
IFT values were measured for four systems: (1) crude oil and RB, (2) 3p and 1.1-wt % 3 pRB, (3) crude oil and 1.1-wt % 3 pRB, and (4) crude oil diluted by 18.6 wt % 3p and 0.8-wt % 3 pRB. System 1 was at phase equilibrium. A certain level of mass transfer was expected during the IFT measurement for the other three pseudo-binary systems. In system 2, water could transfer from 1.1-wt % 3 pRB to the 3p-rich phase. An IFT was estimated by using the densities of 3p and 1.1-wt % 3 pRB. In system 3, 3p could be transferred from RB to crude oil, which reduced the density of the oleic phase. Therefore, the upper-limit and lower-limit density values were assigned for the oleic phase to calculate a possible range of IFTs for this system. System 4 was tested to validate the range of IFT values estimated for system 3.

[3] = Density of crude oil/3p mixtures (in-line densitometer); type: physicochemical; conditions: 347 K
Protocol: (§1) Density and viscosity experiments. […] The system consists mainly of automated pumps, a sample accumulator, an in-line fluid densitometer, an in-line viscometer, an oven, and an effluent accumulator. The pump (Teledyne ISCO 100DX) maintained the system pressure automatically by water.
(§2) In the density measuring cell (Anton Paar DMA-HPM), fluid's density is measured in a U-shaped tube, in the range from 0 to 3000 kg/m^3. The instrument precision of the density meter is ±1 kg/m^3. Anton Paar DMA-HPM uses the method of oscillating U-tube for its density measurement, in which the sample's density is calculated from the sample's period of oscillation. The in-line viscometer (ViscoPro 2100) measures the viscosity of a fluid in the range from 0.2 to 2 cp. The instrument precision of the viscometer is ±0.02 cp and repeatability is ±0.5% of the reading. During the viscosity measurement, the magnetic piston is surrounded by the fluid sample and oscillates under magnetic force. The sample's viscosity is calculated from the time required for the piston to complete a two-way cycle. The viscometer and density meter were placed in a Despatch oven (model LAC2-18-8). Light-emitting diode screens that display measured data from the fluid densitometer and viscometer were connected outside the oven. The absolute pressure of the system was measured with a pressure gauge (Omega PX459-2.5KGI-EH).
(§3) Densities and viscosities were measured for the following mixtures of crude oil and 3p: 81.4 wt % crude oil and 18.6 wt % 3p (33 mol % 3p), 59.0 wt % crude oil and 41.0 wt % 3p (60 mol % 3p), and 35.1 wt % crude oil and 64.9 wt % 3p (80 mol % 3p). Each mixture was mixed in a glass bottle with a magnetic mixer before placing it in the accumulator.
(§4) Before each measurement, the system was cleaned thoroughly with toluene. Then, the system was dried by air and evacuated. Next, the fluid mixture was pumped into the system from the accumulator. Then, the temperature in the oven was increased to 347 K. When the temperature in the oven was stable, the mixture was measured for viscosities and densities at different pressures, ranging from 101 kPa to 10342 kPa.

[4] = Viscosity of crude oil/3p mixtures (in-line viscometer); type: physicochemical; conditions: 347 K
Protocol: as §1, §2, §3, §4

[5] = Spontaneous imbibition in Amott cells; conditions: oil diluted by 18.6 wt % 3p
[6] = Solubility of water in 3p; type: physicochemical; conditions: 343 K
[7] = Volume change on mixing of 3-pentanone and RB (molar volume); type: physicochemical; conditions: 347 K and atmospheric pressure

- phase separation of 3p/crude oil mixtures [1]: No phase separation was observed
- effect of 3p on IFT between oleic and aqueous phases ([2]; 1.1 wt % 3p in aqueous phase): essentially no effect
- IFT ([2]; system 2: 3p and 1.1-wt % 3pRB, atmospheric pressure): 10.02 mN/m
- density of crude oil diluted with 18.6 wt % 3-pentanone ([3]; atmospheric pressure): 772 kg/m^3
- Density ([3]; crude oil with 18.6 wt % (33 mol %) 3-pentanone, 103.97 kPa): 771.8049 kg/m^3
- Density ([3]; crude oil with 18.6 wt % (33 mol %) 3-pentanone, 1385.02 kPa): 773.0452 kg/m^3
- Density ([3]; crude oil with 18.6 wt % (33 mol %) 3-pentanone, 3452.00 kPa): 775.0159 kg/m^3
- Density ([3]; crude oil with 18.6 wt % (33 mol %) 3-pentanone, 6899.03 kPa): 778.2247 kg/m^3
- Density ([3]; crude oil with 18.6 wt % (33 mol %) 3-pentanone, 10345.03 kPa): 781.3632 kg/m^3
- Density ([3]; crude oil with 41.0 wt % (60 mol %) 3-pentanone, 107.01 kPa): 768.9360 kg/m^3
- Density ([3]; crude oil with 41.0 wt % (60 mol %) 3-pentanone, 1379.02 kPa): 770.3187 kg/m^3
- Density ([3]; crude oil with 41.0 wt % (60 mol %) 3-pentanone, 3447.03 kPa): 772.3456 kg/m^3
- Density ([3]; crude oil with 41.0 wt % (60 mol %) 3-pentanone, 3891.03 kPa): 775.7424 kg/m^3
- Density ([3]; crude oil with 41.0 wt % (60 mol %) 3-pentanone, 10343.03 kPa): 779.0497 kg/m^3
- Density ([3]; crude oil with 64.9 wt % (80 mol %) 3-pentanone, 101.01 kPa): 765.4374 kg/m^3
- Density ([3]; crude oil with 64.9 wt % (80 mol %) 3-pentanone, 1383.02 kPa): 766.7794 kg/m^3
- Density ([3]; crude oil with 64.9 wt % (80 mol %) 3-pentanone, 3445.03 kPa): 769.0788 kg/m^3
- Density ([3]; crude oil with 64.9 wt % (80 mol %) 3-pentanone, 6896.00 kPa): 772.6733 kg/m^3
- Density ([3]; crude oil with 64.9 wt % (80 mol %) 3-pentanone, 10342.00 kPa): 776.2332 kg/m^3
- μo^−1/2 of 3p-diluted oil ([4]; 33 mol % or 18.6 wt % 3p, atmospheric pressure): 1.2383 cp^−1/2
- Viscosity ([4]; crude oil with 18.6 wt % (33 mol %) 3-pentanone, 134.38 kPa): 0.6522 cp
- Viscosity ([4]; crude oil with 18.6 wt % (33 mol %) 3-pentanone, 1381.57 kPa): 0.6534 cp
- Viscosity ([4]; crude oil with 18.6 wt % (33 mol %) 3-pentanone, 3448.00 kPa): 0.6533 cp
- Viscosity ([4]; crude oil with 18.6 wt % (33 mol %) 3-pentanone, 6887.59 kPa): 0.6545 cp
- Viscosity ([4]; crude oil with 18.6 wt % (33 mol %) 3-pentanone, 10336.00 kPa): 0.6561 cp
- Viscosity ([4]; crude oil with 41.0 wt % (60 mol %) 3-pentanone, 157.89 kPa): 0.4609 cp
- Viscosity ([4]; crude oil with 41.0 wt % (60 mol %) 3-pentanone, 1375.71 kPa): 0.4604 cp
- Viscosity ([4]; crude oil with 41.0 wt % (60 mol %) 3-pentanone, 3448.00 kPa): 0.4596 cp
- Viscosity ([4]; crude oil with 41.0 wt % (60 mol %) 3-pentanone, 6889.10 kPa): 0.4613 cp
- Viscosity ([4]; crude oil with 41.0 wt % (60 mol %) 3-pentanone, 10337.52 kPa): 0.4592 cp
- Viscosity ([4]; crude oil with 64.9 wt % (80 mol %) 3-pentanone, 135.9 kPa): 0.3267 cp
- Viscosity ([4]; crude oil with 64.9 wt % (80 mol %) 3-pentanone, 1381.57 kPa): 0.3264 cp
- Viscosity ([4]; crude oil with 64.9 wt % (80 mol %) 3-pentanone, 3446.55 kPa): 0.3242 cp
- Viscosity ([4]; crude oil with 64.9 wt % (80 mol %) 3-pentanone, 6893.45 kPa): 0.3221 cp
- Viscosity ([4]; crude oil with 64.9 wt % (80 mol %) 3-pentanone, 10340.41 kPa): 0.3205 cp
- solubility of water in 3p [6]: approximately 3 wt %
- volume change on mixing of 3-pentanone and RB [7]: smaller than 0.39%
Structure (SMILES): CCC(=O)CC [3-pentanone]
- oil viscosity reduction ([4]; oil diluted by 18.6 wt % (33 mol %) 3-pentanone): 21%
- increase of oleic phase saturation (oil swelling) ([5]; 347 K, atmospheric pressure): 24%
- enhancement of oil recovery rate because of oil dilution by 3p (scaling theory) ([5]; spontaneous imbibition): 13%
